Assay results from US10584350B2, “Structurally modified COI1” (Board of Trustees of Michigan State University, priority 2016, dated 2020).
“Also recorded” adds a separate entry of the source.

B1: COI1A384V: modified Arabidopsis thaliana COI1 protein with valine at position 384 (SEQ ID NO:2); also names transgenic plants expressing it (protein, listed as Arabidopsis thaliana)
chain: MEDPDIKRCKLSCVATVDDVIEQVMTYITDPKDRDSASLVCRRWFKIDSETREHVTMALCYTATPDRLSRRFPNLRSLKLKGKPRAAMFNLIPENWGGYVTPWVTEISNNLRQLKSVHFRRMIVSDLDLDRLAKARADDLETLKLDKCSGFTTDGLLSIVTHCRKIKTLLMEESSFSEKDGKWLHELAQHNTSLEVLNFYMTEFAKISPKDLETIARNCRSLVSVKVGDFEILELVGFFKAAANLEEFCGGSLNEDIGMPEKYMNLVFPRKLCRLGLSYMGPNEMPILFPFAAQIRKLDLLYALLETEDHCTLIQKCPNLEVLETRNVIGDRGLEVLAQYCKQLKRLRIERGADEQGMEDEEGLVSQRGLIALAQGCQELEYMVVYVSDITNESLESIGTYLKNLCDFRLVLLDREERITDLPLDNGVRSLLIGCKKLRRFAFYLRQGGLTDLGLSYIGQYSPNVRWMLLGYVGESDEGLMEFSRGCPNLQKLEMRGCCFSERAIAAAVTKLPSLRYLWVQGYRASMTGQDLMQMARPYWNIELIPSRRVPEVNQQGEIREMEHPAHILAYYSLAGQRTDCPTTVRVLKEPI

Experiments:
PR1 gene expression = assay: qPCR of SA-responsive gene PR1; assay type: in vivo, Arabidopsis; conditions: plants expressing the protein
Procedure: (§1) Col-0 and transgenic seeds were germinated on half-strength MS medium. Five-day-old seedlings were transferred into liquid half-strength MS medium. Segregating coil-30 seeds were germinated on half-strength MS medium with 10 μM MeJA. and MeJA-resistant 5-d-old seedlings were transferred into liquid half-strength MS medium. Next, 10 μM MeJA (Sigma), 0.2 μM COR or 0.1% DMSO were applied to 12-d-old seedlings. Samples were collected after 3 h and total RNA was extracted using Qiagen RNeasy Mini kit (Qiagen). M-MLV Reverse transcriptase (Life Technologies) and SYBR Green master mix (Life Technologies) were used for reverse-transcription and real-time PCR. Primers used were: […]

SID2 gene expression = assay: qPCR of SA-responsive gene SID2; assay type: in vivo, Arabidopsis; conditions: plants expressing the protein
Procedure: as §1

Pst DC3000 = assay: Bacterial infection assay, dip-inoculation; assay type: in vivo, Pseudomonas syringae pv tomato; conditions: 3 days after dip-inoculation
Procedure: (§2) The Pseudomonas syringae infection assays in Arabidopsis were performed as described by Yao et al. (Methods Mol Biol 1011:63-81 (2013)). In brief, 4- to 5-wk-old (12-h light/12-h dark) Arabidopsis plants were dip-inoculated with bacterial suspension (1×10^8 cfu/mL Pst DC3000 or Psm ES4326 in 0.25 mM MgCl2 solution with 0.025% Silwet-77) or syringe-infiltrated with bacterial suspension (1×10^6 cfu/mL Pst DC3118 or DB29 in 0.25 mM MgCl2 solution). Bacterial growth was determined by serial dilutions of plant extracts 3 or 4 days after inoculation. Homozygous COI1-30 plants were selected by genotyping before bacterial infection.

Spodoptera exigua = assay: Insect feeding assays; assay type: in vivo; conditions: for average weight of larvae feeding on COI1-30 plants higher than larvae reared on these plants: S. exigua neonate larvae
Procedure: Insect bioassays were performed as described by Herde et al. (Methods Mol Biol 1011:51-61 (2013)). Briefly, eggs of Spodoptera exigua were obtained from Benzon Research, and four neonate Spodoptera exigua larvae were transferred to the center of each 6-wk-old Arabidopsis host plant. Plants were grown under 8-hour light (100 μE·m^2·s) and 16-h dark and covered with cup cages. Larval weights were determined after 9-12 days of feeding.

JAZ9 gene expression = assay: qPCR of JA-responsive marker gene JAZ9; assay type: in vivo, Arabidopsis; conditions: 10 μM MeJA or 0.2 μM COR, 3 h; for induction of JAZ9 expression compared with that in COI1-30 plants: COI1A384V L1 line; for JAZ9 gene expression in response to treatment compared with Col-0 or COI1WT plants: COI1A384V lines; for JAZ9 gene expression after application: Col-0 and COI1WT plants
Procedure: as §1

root growth = assay: Root growth inhibition assays; assay type: in vivo, Arabidopsis; conditions: for concentrations of comparable potency in inhibiting root growth: COI1A384V plants; for concentrations with equivalent effect on root growth inhibition: wild-type Col-0 plants; for sensitivity of plants to COR vs MeJA: root growth inhibition, 0.2 μM COR vs 10 μM MeJA, in vivo
Procedure: Col-0, segregating COI1-30, transgenic COI1WT, and COI1A384V seeds were surface-sterilized, cold-stratified, and germinated on half-strength MS agar media containing MeJA, COR, or DMSO at the indicated concentrations. Seedlings were grown under long-day light conditions (16-h light at 100 μE·m^2·s, and 8-h dark) for 10-12 days before scanning images of roots. Root lengths were measured using ImageJ software (see website at rsbweb.nih.gov/ij/).

COI1-JAZ9 interaction [1] = conditions: Y2H; Thines et al., Melotto et al.; cited from earlier work
[2] = tested on: COI1WT/A384V-JAZ9 co-receptor; assay: Coreceptor pull-down assay; assay type: binding, Arabidopsis; conditions: plant-expressed COI1, E. coli-expressed JAZ9
Procedure: Pull-down assays were performed with protein extracts from 4-mg pCOI1:COI1WT/A384V-4×c-Myc plants and 25 μg recombinant MBP-JAZ9-8×His. Assays were performed in the presence of JA-Ile or COR at various concentrations and incubated for 30 min at 4° C. in the binding buffer (Katsir et al., Proc Natl Acad Sci USA 105(19):7100-7105 (2008)). Eighty microliters of Ni resin (Invitrogen) were added, followed by an additional 15-min incubation period at 4° C. MBP-JAZ9-8×Hisbound Ni resin was washed three times on microcentrifuge spin columns with 0.25 mL binding buffer at 4° C. MBP-JAZ9-8×His was eluted from the resin with 100 μL of 300 mM imidazole. Proteins bound to MBP-JAZ9-8×His were analyzed by immunoblotting for the presence of COI1WT/A384V-4×c-Myc using anti-cMyc antibody. MBP-JAZ9-8×His recovered by the Ni affinity resin was detected by Coomassie blue staining.

COI1-JAZ9 interaction [3] = assay: Quantitative liquid Y2H assays (Beta-Glo, RLU); assay type: cell-based, Arabidopsis; conditions: yeast
Procedure: Yeast EGY48 strain carrying the p8Op:LacZ reporter plasmid was co-transformed with pGilda:COI1 (or COI1 mutants) and pB42AD:JAZ9 (or other JAZs) (Clontech). Colonies were selected on SD minimal plates (BD Biosciences) supplemented with the—uracil (U)/-tryptophan (W)/-histidine (H) amino acid drop out solution (Clontech). Yeast colonies were cultured overnight in liquid SD-UWH medium, harvested, washed twice in sterile water, and the absorbance (OD600) of the cultures was adjusted to 0.2 in liquid SD galactose/raffinose-UWH medium (BD Biosciences).
For liquid Y2H assays, cultures were supplemented with designated concentrations of JA-Ile (10 or 30 μM), COR (1 μM), or DMSO. After 16-h incubation with ligands, the liquid cultures were processed through the Beta-Glo Assay system (Promega) for detecting the β-galactosidase activity. […] Protein expression in yeast was detected using anti-LexA antibody (1:5,000; Upstate Biotechnology) for detection of COI1 expression from pGilda vector and anti-HA (1:5,000; Roche Life Science) antibody for detection of JAZ9 expression in pB42AD vector.

Psm ES4326 = assay: Bacterial infection assay, dip-inoculation; assay type: in vivo, Pseudomonas syringae pv maculicola; conditions: 3 days after dip-inoculation
Procedure: as §2

Row | Molecule | expression of PR1 gene (PR1 gene expression) | expression of SID2 gene (SID2 gene expression) | resistance / susceptibility to Pst DC3000 (bacterial growth and disease symptoms) (Pst DC3000) | average weight of larvae feeding on COI1-30 plants higher than larvae reared on these plants (Spodoptera exigua) | induction of JAZ9 expression compared with that in COI1-30 plants (JAZ9 gene expression) | JAZ9 gene expression in response to treatment compared with Col-0 or COI1WT plants (JAZ9 gene expression) | JAZ9 gene expression after application (JAZ9 gene expression) | concentrations of comparable potency in inhibiting root growth (root growth) [µM] | concentrations with equivalent effect on root growth inhibition (root growth) [µM] | further results
1 | COI1WT: wild type COI1 (SEQ ID NO:1) expressed in COI1-30-null background; control transgenic lines | similarly low | similarly low | highly susceptible | six-fold |  |  |  |  |  | weight of larvae compared with Col-0 (Spodoptera exigua; 12-day-old larvae, one-way ANOVA with Dunnett test): No significant difference
2 | CC/C=C\CC1C(=O)CCC1CC(=O)OC (stereo not drawn) [MeJA, methyl jasmonate] |  |  |  |  | 38 fold | less affected | induced | 0.1 | 10 | activity in yeast (COI1-JAZ9 interaction [1]): not active
3 | CC[C@H]1C=C(C(=O)N[C@@]2(C(=O)O)C[C@H]2CC)[C@H]2CCC(=O)[C@H]2C1 [COR, coronatine] |  |  |  |  | eight-fold | significantly reduced | induced | 0.2 | 0.2 | higher concentration required for robust formation of the COI1A384V-JAZ9 co-receptor than for the COI1WT-JAZ9 co-receptor [2]: ~100 fold; less effective in COI A384V than in Col-0 and COI1WT (root growth inhibition) (root growth; 0.2 μM COR): about 100 fold; concentrations equivalent in promoting the COI1-JAZ9 interaction (COI1-JAZ9 interaction [3]; JA-Ile is a mixture of active and inactive isomers, COR pure): 0.1 µM
4 | B1 | similarly low | similarly low | significantly increased resistance | five-fold |  |  |  |  |  | resistance to Psm ES4326 compared with Col-0 or COI1WT plants (Psm ES4326): significantly increased resistance; level of defense against S. exigua (Spodoptera exigua; in vivo): almost wild-type levels; sensitivity of plants to COR vs MeJA (root growth): significantly less sensitive; also recorded: differentially sensitive; sensitivity of plants to COR vs MeJA (root growth; listed as COI A384V): more sensitive; COR-dependent COI1-JAZ9 interaction (COI1-JAZ9 interaction [3]; liquid Y2H, 1 μM COR): greatly reduced; JA-Ile-dependent COI1-JAZ9 interaction (COI1-JAZ9 interaction [3]; liquid Y2H, 10 or 30 μM JA-Ile): less effect; differential effect on JA-Ile-dependent vs COR-dependent COI1-JAZ9 interaction (COI1-JAZ9 interaction [3]; liquid Y2H): preferably affects COR-dependent COI1-JAZ9 interaction
